Test results reported in patent publication US12576155B2, “Senolytic and antiinflammatory prodrugs and methods of use thereof” (priority 2019, dated 2026).
Read-outs that look alike come from different tables or passages of the source.

Key:
[1] = tested on: senescent human umbilical vein endothelial cells (HUVECs); assay: Cell viability, senescent and non-senescent HUVECs; type: cell-based; details: replication-induced senescent vs non-senescent HUVECs; increasing doses
Excerpt: (§1) For replication-induced senescence, cells were passaged until they lost the ability to proliferate and became senescent. NBFs were used as senescent cells after approximately 8-9 passages or 12 population doublings. HEFs were used after approximately 35 passages or 50 population doublings. HUVECs were senescent after approximately 18 passages or 24 population doublings.
To test the viability of senescent and non-senescent cells treated with SSK1, cells were stained with a mixture of Hoechst 33342 and propidium iodide (PI) (CA1120, Solarbio) to distinguish living and dead cells. After treatment with the small molecules, the cell culture medium was removed, and the cells were washed once with PBS. Then, the cells were stained according to the manufacturer's protocol, where the final concentrations of Hoechst 33342 and PI were 5 μg/ml and 2 μg/ml in PBS buffer. The plate was incubated at 4° C. for 30 min and observed on a fluorescence microscope or automatic cell imaging system. Viable cells were quantified using a MD Image Xpress Micro XL (Molecular Devices).

[2] = rhesus monkey, in vivo
[3] = tested on: SA-β-gal-positive senescent cells in bleomycin-injured lungs; assay: Bleomycin-induced lung injury (lung fibrosis and senescence) mouse model; type: in vivo, mice
Experimental: All drugs were mixed in 90% PBS, 5% Tween-80 (P1754, Sigma), and 5% polyethylene glycol (PEG) (81172, Sigma) and administered to mice by intraperitoneal (i.p.) injection. For treating bleomycin-injured young mice, SSK1 (0.5 mg/kg) or vehicle were given consecutive two days every week for five weeks. For old mice (20-month-old), SSK1 (0.5 mg/kg), gemcitabine (0.5 mg/kg) or vehicle were administrated for continued 3 days every two weeks. Gemcitabine was purchased from MCE.
Bleomycin was purchased from Selleck. To induce lung senescence and fibrosis, young male and female mice (3-month-old) were subjected to transtracheal injection of bleomycin (1 mg/kg) as previously reported (Bivas-Benita et al., Eur J Pharm Biopharm 61, 214-218(2005))
Cultured cells were washed once with PBS and fixed in β-galactosidase staining fix solution for 15 min at room temperature. Cells were then washed three times with PBS and incubated with β-galactosidase staining solution (Beyotime Biotechnology) for 16-20 hours at 37° C. For 12-well plates, 1 ml of β-galactosidase staining solution was added to each well. The plate was sealed with Parafilm to prevent evaporation of the staining medium. After the overnight incubation, cells were washed with PBS and observed under a bright field microscope. For β-galactosidase staining of frozen sections, the frozen sections were dried at 37° C. for 20-30 min and then fixed in β-galactosidase staining fix solution for 15 min at room temperature. The frozen sections were washed three times with PBS and incubated with β-galactosidase staining solution overnight at 37° C. After completion of β-galactosidase staining, the sections were stained with eosin for 1-2 min, rinsed under running water for 1 min, differentiated in 1% acid alcohol for 10-20 sec, and washed again under running water for 1 min. Sections were dehydrated in increasing concentrations of alcohols and cleared in xylene. Excess xylene was drained and a coverslip was placed over the section. After drying, the sample was observed under a microscope.
Lung, liver, and kidney frozen sections stained with SA-β-Gal were quantified by ImageJ software (NIH) to measure the SA-β-Gal positive area. The total area was quantified by eosin positive area with ImageJ software (NIH). The relative positive SA-β-Gal positive cells were calculated with the SA-β-Gal positive area divided by the total area. Each mouse was measured with 3-5 regions.
For detecting the p21 expression in lungs, we conducted the immunohistochemical staining experiment for p21 with an immunohistochemical staining kit (SP-9000, ZSGB-BIO). Freshly isolated tissues were fixed by 10% formalin for one day and then transferred in 20% formalin for another day. The tissue blocks were then dehydrated and embedded in paraffin. The embedded tissues were cut and affixed on slides. Before immunohistochemical staining, the slides were deparaffinized, rehydrated, and performed antigen retrieve by high pressure and high temperature in Tris/EDTA pH 8.0 buffer solution. Immunohistochemical staining was conducted according to the manufacturers' instructions.
Total RNA was isolated using the Direct-zol RNA MiniPrep Kit (Zymo Research, R2072). […] Data were analyzed using the 2^(−ΔΔCt) method. […]

[4] = tested on: primary mouse fibroblasts and their replication-induced senescent counterparts; assay: Cell viability testing, senescent vs non-senescent primary mouse fibroblasts; type: cell-based; details: increasing doses; senescent vs non-senescent cells
Experimental: (§2) Mouse embryonic fibroblasts (MEFs) were isolated from E13.5 embryos as described previously (Zhao et al., Cell Stem Cell 23, 31-45 e37([…])). Newborn mouse skin fibroblasts (NBFs) were isolated from the skin of day 1-3 newborn mice. Adult mouse lung fibroblasts were isolated from 2-month-old and 23-month-old mice. Briefly, mouse embryonic tissues, skin and lung were obtained from described donor mice. Then, these tissues were minced with forceps and incubated in 2 mg/ml collagenase IV (Gibco) for 2-4 hours at 37° C. After enzyme treatment, cells were collected by centrifugation and resuspended in high-glucose DMEM (Gibco) supplemented with 10% fetal bovine serum (FBS) and 1% penicillin-streptomycin (Gibco). The three types of mouse primary cells were all cultured in a humidified incubator at 37° C. and 5% CO2.
To avoid replication-induced senescent cells, low-passage proliferative NBFs (<3 passages), MEFs (<3 passages), mouse lung fibroblasts (<3 passages), HEFs (<10 passages), and HUVECs (<6 passages) were used as normal controls. To induce cell quiescence, MEFs were cultured in DMEM without FBS for 2 days.
as §1
(§3) To test the viability of senescent and non-senescent cells treated with SSK1, cells were stained with a mixture of Hoechst 33342 and propidium iodide (PI) (CA1120, Solarbio) to distinguish living and dead cells. After treatment with the small molecules, the cell culture medium was removed, and the cells were washed once with PBS. […] The plate was incubated at 4° C. for 30 min and observed on a fluorescence microscope or automatic cell imaging system. Viable cells were quantified using a MD Image Xpress Micro XL (Molecular Devices).

[5] = tested on: senescent lung cells from 23-month-old mice; assay: Cell viability, mouse lung fibroblasts of old and young mice; type: cell-based; details: senescent lung cells from 23-month-old mice vs non-senescent lung cells from young mice; increasing doses
Experimental: as §2, §3

In the case of `CC(=O)OCC1O[C@@H](Oc2ccc(COC(=O)Nc3ccn([C@@H]4O[C@H](CO)C(O)C4(F)F)c(=O)n3)cc2[N+](=O)[O-])C(OC(C)=O)C(OC(C)=O)[C@H]1OC(C)=O` (stereo partly shown) [SSK1], the “Selective killing of senescent cells (viability)” value [1] was “selectively killed by SSK1”, the UA ([2]; 0.5 mg/kg) was 9 µmol/L and the UA ([2]; 2 mg/kg) was 10 µmol/L. For the same compound, the “Decline in physical functions (treadmill exhaustion distance)” value ([3]; SSK1 0.5 mg/kg i.p.) was “attenuated”, the Lung fibrosis ([3]; SSK1 0.5 mg/kg i.p.) was “attenuated” and the “p21-positive cells and other senescence-associated markers in lungs (immunohistochemistry, RT-qPCR)” value ([3]; SSK1 0.5 mg/kg i.p.) was “decreased p21-positive cells and other senescence-associated markers”. The “Decrease of SA-β-gal-positive cells in lungs vs vehicle” value ([3]; SSK1 0.5 mg/kg i.p., five weeks) was 3.8 fold, the “β-gal positive macrophages in injured lungs” value ([3]; SSK1 0.5 mg/kg, xCell analysis of RNA-seq, FIG. 6C) was “reduction of β-gal positive macrophages was observed” and the “Selective killing of senescent cells (viable cells)” value [4] was “selectively and potently eliminated SA-β-gal-positive senescent cells over non-senescent cells with a wide therapeutic window”. The “Selective elimination of senescent cells (viable cells)” value [5] was “specifically eliminated these senescent cells”.
